Data from the NIST ThermoML archive (doi:10.1016/j.fluid.2013.06.021).
± gives the expanded uncertainty stated by the source.

Conditions: 298.15 K, 101.33 kPa, Liquid; for viscosity: Capillary tube (Ostwald / Ubbelohde) method; for speed of sound: Sing-around technique in a fixed-path interferometer; for mass density: Vibrating tube method

| viscosity [mPa·s] | speed of sound [m/s] | mass density [kg/m3] | Structure (SMILES) |
| --- | --- | --- | --- |
| 2.625 ± 0.12 | 1240.6 ± 0.71 | 805.986 ± 0.12 | CCCCO [butan-1-ol] |
| 3.075 ± 0.12 | 1213.3 ± 0.81 | 802.563 ± 0.14 | CCC(C)O (stereo not given) [butan-2-ol] |
| 1.984 ± 0.12 | 1207 ± 0.8 | 800.13 ± 0.14 | CCCO [propan-1-ol] |
| 2.111 ± 0.12 | 1140.6 ± 0.64 | 781.588 ± 0.12 | CC(C)O [propan-2-ol] |

| Structure (SMILES) | viscosity [mPa·s] | speed of sound [m/s] | mass density [kg/m3] |
| --- | --- | --- | --- |
| CCCCOCCO [2-butoxyethan-1-ol] | 2.885 ± 0.12 | 1306 ± 0.7 | 896.312 ± 0.083 |
